# Data taken from US20240199647A1, “ANTI-VIRAL COMPOUNDS” (Aligos Therapeutics, Inc., priority 2022, published 2024).
# Where two headings read alike, the source gives them in different places.
# Legend:
# [1] = target: SARS-Cov-2 3CLpro (Severe acute respiratory syndrome coronavirus 2, UniProt P0DTD1); assay: biochemical; conditions: Table A, class symbols, read-out: SARS-Cov-2 (IC50)
# [2] = tested on: HeLa human cervical epithelial cells; assay: Cytotoxicity in HeLa cells without addition of OC43 virus (in parallel); conditions: Table B; HeLa cells without OC43 virus, class symbols
# [3] = tested on: human beta-coronavirus OC43; assay: OC43 Coronavirus Assay in HeLa cells (antiviral, cytopathic effect, cell-titer-glo); assay type: cell-based; conditions: Table B, OC43 coronavirus in HeLa cells, class symbols, read-out: EC50
# [4] = tested on: SARS-CoV-2 B.1.1.7 lineage; assay: microbe, parasite or virus in culture; assay type: cell-based; conditions: Severe acute respiratory syndrome coronavirus 2, Table C, SARS-CoV-2 B.1.1.7 in A549-dual_ACE2_TMPRSS2 cells, read-out: A549-dual_ACE2_TMPRSS2 (EC50)
# [5] = Cytotoxicity in HeLa cells without addition of OC43 virus (in parallel); conditions: human, HeLa cells, without OC43 virus
# [6] = in vitro; conditions: human
SMILES,IC50 [1] [nM],CC50 [2] [nM],EC50 [3] [nM],EC50 ([4]; class symbols) [nM],CC50 at 6 days [5] [nM],"EC50 ([3]; Betacoronavirus 1, OC43, HeLa) [nM]",CC50 [6] [nM],EC50 ([4]; cells given as a bound) [nM]
"CC1NC(=O)[C@]2(C[C@@H](C#N)N(C(=O)[C@H](CC3CC3)N(C)C(=O)[C@H](CC3CC3)NC(=O)C(F)(F)F)C2)Oc2ccccc21 (single isomer, unassigned) [Compound 224, (S)—N—((S)-1-((2R,5R*,5'S)-5′-cyano-5-methyl-3-oxo-4,5-dihydro-3H-spiro[benzo[f][1,4]oxazepine-2,3′-pyrrolidin]-1′-yl)-3-cyclopropyl-1-oxopropan-2-yl)-3-cyclopropyl-N-methyl-2-(2,2,2-trifluoroacetamido)propanamide]",< 20,> 10000,< 100,–,–,–,–,–
"CN(C(=O)[C@H](CC1CC1)NC(=O)C(F)(F)F)[C@@H](CC1CC1)C(=O)N1C[C@]2(C[C@H]1C#N)C(=O)NCc1ccccc12 (single isomer, unassigned) [Compound 122]",< 20,–,–,< 100,> 10000,< 100,> 1000,–
"C[C@H](NC(=O)C(F)(F)F)C(=O)N(C)[C@@H](COC(C)(C)C)C(=O)N1C[C@@]2(C[C@H]1C#N)Oc1cc(F)cc(F)c1NC2=O [Compound 115, (S)—N—((S)-3-(t-butoxy)-1-((2R,5'S)-5′-cyano-5,7-difluoro-3-oxo-3,4-dihydrospiro[benzo[b][1,4]oxazine-2,3′-pyrrolidin]-1′-yl)-1-oxopropan-2-yl)-N-methyl-2-(2,2,2-trifluoroacetamido)propenamide]",< 20,–,–,100 to 1000,> 10000,100 to 1000,> 1000,–
"CN(C(=O)[C@H](CC1CC1)NC(=O)C(F)(F)F)[C@@H](CC1CC1)C(=O)N1C[C@@]2(C[C@H]1C#N)Oc1ccccc1CNC2=O [Compound 81, (S)—N—((S)-1-((2R,5'S)-5′-cyano-3-oxo-4,5-dihydro-3H-spiro[benzo[f][1,4]oxazepine-2,3′-pyrrolidin]-1′-yl)-3-cyclopropyl-1-oxopropan-2-yl)-3-cyclopropyl-N-methyl-2-(2,2,2-trifluoroacetamido)propenamide]",< 20,–,–,< 100,> 10000,< 100,> 1000,–
CC(C)C[C@@H](C(=O)N1C[C@@]2(C[C@H]1C#N)CC(C)(C)NC2=O)N(C)C(=O)[C@H](C)NC(=O)C(F)(F)F [Compound 22],20 to 200,–,–,–,> 10000,1000 to 10000,> 1000,> 1000
CN(C(=O)[C@H](CC1CC1)NC(=O)C(F)(F)F)[C@@H](CC1CC1)C(=O)N1C[C@@]2(C[C@H]1C#N)Oc1ccccc1C(C)(C)NC2=O [Compound 228],20 to 200,–,–,100 to 1000,> 10000,100 to 1000,> 1000,–
"CN(C(=O)[C@H](CC1CC1)NC(=O)C(F)(F)F)[C@@H](CC1CC1)C(=O)N1C[C@@]2(C[C@H]1C#N)Oc1cc(F)cc(C#N)c1NC2=O (single isomer, unassigned) [Example 35]",20 to 200,–,–,100 to 1000,> 10000,1000 to 10000,> 1000,–
"CN(C(=O)[C@H](CC1CC1)NC(=O)C(F)(F)F)[C@@H](CC1CC1)C(=O)N1C[C@@]2(C[C@H]1C#N)Oc1cc(C#N)cc(F)c1NC2=O [Example 34, (S)-3-cyclopropyl-N—((S)-3-cyclopropyl-1-((2R,5'S)-5′,7-dicyano-5-fluoro-3-oxo-3,4-dihydrospiro[benzo[b][1,4]oxazine-2,3′-pyrrolidin]-1′-yl)-1-oxopropan-2-yl)-N-methyl-2-(2,2,2-trifluoroacetamido)propanamide]",< 20,–,–,100 to 1000,> 10000,100 to 1000,> 1000,–
"CC(C)C[C@@H](C(=O)N1C[C@]2(CC(C)NC2=O)C[C@H]1C#N)N(C)C(=O)[C@H](C)NC(=O)C(F)(F)F (stereo partly drawn) [Compound 21, (2S)—N-((2S)-1-((3S,5S)-3-cyano-8-methyl-6-oxo-2,7-diazaspiro[4.4]nonan-2-yl)-4-methyl-1-oxopentan-2-yl)-N-methyl-2-(2,2,2-trifluoroacetamido)propanamide]",< 20,–,–,100 to 1000,> 10000,100 to 1000,> 1000,–
C[C@H](NC(=O)C(F)(F)C(F)(F)F)C(=O)N(C)[C@@H](CC1CC1)C(=O)N1C[C@@]2(C[C@H]1C#N)Oc1cc(F)cc(F)c1NC2=O [Compound 95],< 20,–,–,< 100,> 10000,1000 to 10000,> 1000,–
C[C@H](NC(=O)C(F)(F)F)C(=O)N(C)[C@@H](CC1CC1)C(=O)N1C[C@@]2(C[C@H]1C#N)Oc1cccc(F)c1NC2=O [Compound 98],< 20,–,–,< 100,> 10000,100 to 1000,> 1000,–
C[C@H](c1ccccc1)[C@H](NC(=O)C(F)(F)F)C(=O)N(C)[C@@H](CC1CC1)C(=O)N1C[C@@]2(C[C@H]1C#N)Oc1cccnc1NC2=O [Compound 193],20 to 200,–,–,100 to 1000,> 10000,100 to 1000,> 1000,–
CN1C(=O)[C@]2(C[C@@H](C#N)N(C(=O)[C@H](CC3CC3)N(C)C(=O)[C@H](CC3CC3)NC(=O)C(F)(F)F)C2)Oc2cc(F)cc(F)c21 [Compound 93],< 20,–,–,< 100,> 10000,< 100,> 1000,–
CC(C)C[C@@H](C(=O)N1C[C@@]2(C[C@H]1C#N)Oc1cc(F)cc(F)c1NC2=O)N(C)C(=O)[C@H](C)NC(=O)C1(F)CC1 [Compound 71],< 20,–,–,100 to 1000,> 10000,100 to 1000,> 1000,–
CN(C(=O)[C@H](CC1CC1)n1cc(C(F)(F)F)nn1)[C@@H](CC1CC1)C(=O)N1C[C@@]2(C[C@H]1C#N)Oc1cc(F)cc(F)c1NC2=O [Compound 157],< 20,–,–,< 100,> 10000,< 100,> 1000,–
C[C@@H](OC(C)(C)C)[C@H](NC(=O)C(F)(F)F)C(=O)N(C)[C@@H](CC1CC1)C(=O)N1C[C@@]2(C[C@H]1C#N)Oc1cccnc1NC2=O [Compound 196],< 20,–,–,100 to 1000,> 10000,< 100,> 1000,–
CN(C(=O)[C@H](CC(C)(C)C)NC(=O)C(F)(F)F)[C@@H](CC1CC1)C(=O)N1C[C@@]2(C[C@H]1C#N)Oc1cccnc1NC2=O [Compound 188],< 20,–,–,< 100,> 10000,< 100,> 1000,–
CC(C)C[C@@H](C(=O)N1C[C@@]2(C[C@H]1C#N)Oc1cccnc1NC2=O)N(C)C(=O)[C@H](C)NC(=O)C(F)(F)F [Compound 65],< 20,–,–,100 to 1000,> 10000,100 to 1000,> 1000,–
"C[C@H](NC(=O)C(F)(F)F)C(=O)N(C)[C@@H](CC1CC1)C(=O)N1C[C@@]2(C[C@H]1C#N)Oc1cc(F)cc(F)c1NC2=O [Example 37, (S)—N—((S)-1-((2R,5'S)-5′-cyano-5,7-difluoro-3-oxo-3,4-dihydrospiro[benzo[b][1,4]oxazine-2,3′-pyrrolidin]-1′-yl)-3-cyclopropyl-1-oxopropan-2-yl)-N-methyl-2-(2,2,2-trifluoroacetamido)propanamide]",< 20,–,–,100 to 1000,> 10000,< 100,> 1000,–
CN(C(=O)c1cc2c(F)cc(F)c(F)c2[nH]1)[C@@H](CC1CC1)C(=O)N1C[C@@]2(C[C@H]1C#N)Oc1cccc(F)c1NC2=O [Compound 97],< 20,–,–,100 to 1000,> 10000,< 100,> 1000,–
"CC(C)C[C@@H](C(=O)N1C[C@]2(CC(c3ccccc3)=NNC2=O)C[C@H]1C#N)N(C)C(=O)c1cc2c(F)cc(F)c(F)c2[nH]1 [Example 30, N—((S)-1-((3S,5R)-3-cyano-6-oxo-9-phenyl-2,7,8-triazaspiro[4.5]dec-8-en-2-yl)-4-methyl-1-oxopentan-2-yl)-4,6,7-trifluoro-N-methyl-1H-indole-2-carboxamide]",< 20,–,–,100 to 1000,> 10000,100 to 1000,> 1000,–
"CC(C)C[C@@H](C(=O)N1C[C@]2(C[C@H]1C#N)C(=O)Nc1c3ccccc3nn12)N(C)C(=O)[C@H](C)NC(=O)C(F)(F)F [Example 27, (2S)—N-[(2S)-1-[(3R,5'S)-5′-cyano-2-oxo-1H-spiro[imidazo[1,2-b]indazole-3,3′-pyrrolidin]-1′-yl]-4-methyl-1-oxopentan-2-yl]-N-methyl-2-(2,2,2-trifluoroacetamido)propanamide]",20 to 200,–,–,–,> 10000,1000 to 10000,> 1000,> 1000
C[C@H](NC(=O)C(F)(F)F)C(=O)N(C)[C@@H](CC(C)(C)C)C(=O)N1C[C@@]2(C[C@H]1C#N)Oc1cc(F)cc(F)c1NC2=O [Compound 62],< 20,–,–,100 to 1000,> 10000,100 to 1000,> 1000,–
